Patent US5882851A, “Cytochrome P-450 monooxygenases” (Novartis Finance Corporation, priority 1993, dated 1999)

Target: T1, P-450TYR expressed in E. coli (Sorghum bicolor, UniProt Q43135)
T1 construct: in which the 35 N-terminal amino acids are replaced by the nine N-terminal amino acids from bovine 17α hydroxylase; nine N-terminal amino acids from bovine 17alpha-hydroxylase (replace the 35 N-terminal residues) (N); made in house; host or cells: E. coli JM109, vector pSP19g10L
Assay: Substrate binding spectra of P-450TYR expressed in E. coli
Description: Cytochrome P-450TYR in the oxidized state has a strong absorption peak at 420 nm, representing the low spin state of the iron of the heme group. The binding of a ligand to the heme group shifts the absorption maximum by changing the spin state of the iron. Binding of tyrosine at the catalytic site of cytochrome P-450TYR induces a change of the spin state of the oxidized iron from low to high spin, and thereby changes the absorption maximum from 420 nm to 390 nm producing a type I spectrum (Jefcoate, Methods in Enzymology 52:258-279, 1978). The following experimental procedure is used to obtain the substrate binding spectrum: two identical cuvettes containing a buffered solution of the isolated cytochrome P-450 are prepared. The substrate of the enzyme is added to the sample cuvette whereas the same volume of buffer is added to the other cuvette. The difference spectrum is then recorded in an SLM-Aminco DW2c spectrophotometer. The absorption difference, A390-420, is proportional to the concentration of cytochrome P-450TYR with a bound substrate at its active site. If a saturating concentration of substrate is added to the sample cuvette, the absorption difference is proportional to the concentration of the substrate specific cytochrome P-450 in the cuvettes. The saturating concentration of the substrate is determined by titrating the cytochrome P-450 sample with increasing amounts of substrate and monitoring A390-420.
A modified cytocrome P-450TYR, in which the 35 N-terminal amino acids are replaced by the nine N-terminal amino acids from bovine 17α hydroxylase is introduced into the expression vector pSP19g10L which can be obtained from Dr. Henry Barnes (La Jolla, Calif.). This plasmid contains the lac Z promoter fused with the known short leader sequence (g10L) of gene 10 from bacteriophage T7 (Olin et al, 1988). A construct containing the N-terminal amino acids from bovine 17α hydroxylase and a truncated form of the P-450TYR gene is designed using PCR mutagenesis: Oligonucleotide TYROL 1d (5'-CGGGATCCATATGGCTCTGTTATTAGCAGTTTTTCTGTCGTACCTGGCCCG-3'; SEQ ID NO 23) containing a 5' mutant cDNA sequence as well as a BamHI and NdeI restriction site is used together with oligonucleotide TYROL 3 comprising the sequence surrounding the unique BamHI restriction site downstream of the ATG start codon of the cDNA coding for P-450TYR to amplify a modified N-terminal sequence of P-450TYR. The amplification product is cut with NdeI and BamHI restriction enzymes. To introduce a HindIII site immediately downstream of the stop codon of the P-450TYR gene, oligonucleotides TYROL 2 and TYROL 4 are used in a polymerase chain reaction to obtain a C-terminal fragment of the P-450TYR gene comprising a HindIII restriction site immediately downstream of the stop codon. The amplification product is cut with PstI and HindIII restriction enzymes. The complete expression plasmid is constructed by simultaneous ligation of the N-terminal NdeI/BamHI fragment, the BamHI/PstI fragment of the P-450TYR gene and the C-terminal PstI/HindIII fragment into NdeI/HindIII cleaved pSP19g10L vector DNA. The expression vector obtained is transformed into E. coli strain JM109. Transformed E. coli produce 300 nmol to 500 nmol cytochrome P-450TYR per liter cell culture upon growth at 28° C. in the presence of 1 mM isopropyl-β-D-thiogalactopyranoside and at 125 rpm. Expression levels as high as 900 nmol per liter, equivalent to 55 mg P-450TYR per liter, have been obtained. […]

T1 sequence (Q43135 other isoform, or with tags, fused parts or gaps): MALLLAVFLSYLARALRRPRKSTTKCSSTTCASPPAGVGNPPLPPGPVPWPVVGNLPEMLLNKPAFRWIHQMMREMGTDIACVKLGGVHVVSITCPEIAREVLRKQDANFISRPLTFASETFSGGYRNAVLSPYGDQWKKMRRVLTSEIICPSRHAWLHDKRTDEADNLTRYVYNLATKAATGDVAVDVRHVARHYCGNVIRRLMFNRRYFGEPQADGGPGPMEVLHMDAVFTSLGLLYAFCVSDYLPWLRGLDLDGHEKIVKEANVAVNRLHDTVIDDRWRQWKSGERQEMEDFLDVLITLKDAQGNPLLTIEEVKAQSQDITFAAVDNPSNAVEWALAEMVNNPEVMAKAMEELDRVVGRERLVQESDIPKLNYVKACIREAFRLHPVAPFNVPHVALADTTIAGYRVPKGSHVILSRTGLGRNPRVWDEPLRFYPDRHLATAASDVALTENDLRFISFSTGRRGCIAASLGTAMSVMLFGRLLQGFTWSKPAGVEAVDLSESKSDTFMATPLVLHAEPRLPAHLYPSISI

`N[C@@H](Cc1ccc(O)cc1)C(=O)O` [tyrosine, L-tyrosine] was tested, and the “molar extinction coefficient E420-390” value was 75.8 cm⁻¹ mM⁻¹.
